Results on 30 molecules are retold here after US10323000B2, “Indole derivatives and their use in neurodegenerative diseases” (priority 2014, dated 2019).

One assay addresses human P2X7 receptor (Homo sapiens (Human), UniProt Q99572). Nature of the assay: Pore permeation assay (YO PRO dye uptake). Type of assay: cell-based.
Assay [1] has as its target P2X7 (IL-1β release from THP-1 cells) (Homo sapiens (Human), UniProt Q99572). Nature of the assay: IL-1β release assay. Type of assay: cell-based. The procedure, abridged: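 THP-1 cells were differentiated with PMA 0.5 μM and primed 4 h with LPS 10 ng/ml. They were then pre-incubated 20 min with compound at 37° C and stimulated 30 min with BzATP 0.8 mM. Mature IL-1β released into the supernatant was quantified by sandwich ELISA.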

Setting [2] is: HEK293 transfected with human P2X7, BzATP 10 uM, YO PRO dye uptake, read-out: hP2X7 IC50.
[3] abbreviates: THP-1 cells, LPS primed, 0.8 mM BzATP, mature IL-1β by sandwich ELISA, read-out: hTHP-1/IL-ib IC50.

The structures appear in SMILES notation. Read-outs that look alike come from different tables or passages of the source. Some results are limits rather than exact numbers.

human P2X7 receptor, sequence (Q99572 whole entry): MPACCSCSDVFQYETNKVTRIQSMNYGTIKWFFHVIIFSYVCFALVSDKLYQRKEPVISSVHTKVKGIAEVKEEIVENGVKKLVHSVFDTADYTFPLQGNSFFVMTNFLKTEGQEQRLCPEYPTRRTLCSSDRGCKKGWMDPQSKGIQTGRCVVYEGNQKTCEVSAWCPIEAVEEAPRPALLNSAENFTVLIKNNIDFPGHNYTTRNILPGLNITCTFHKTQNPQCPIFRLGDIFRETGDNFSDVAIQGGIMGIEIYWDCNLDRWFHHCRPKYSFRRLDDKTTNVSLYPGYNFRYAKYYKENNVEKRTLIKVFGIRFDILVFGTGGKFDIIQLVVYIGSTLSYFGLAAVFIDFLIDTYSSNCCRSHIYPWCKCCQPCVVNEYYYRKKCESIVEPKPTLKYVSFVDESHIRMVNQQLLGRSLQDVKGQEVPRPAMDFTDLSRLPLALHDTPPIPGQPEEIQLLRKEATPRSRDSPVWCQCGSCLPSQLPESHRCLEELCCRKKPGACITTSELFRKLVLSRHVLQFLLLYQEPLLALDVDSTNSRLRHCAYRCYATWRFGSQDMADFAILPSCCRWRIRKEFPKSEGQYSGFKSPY
P2X7 (IL-1β release from THP-1 cells), sequence (Q99572 whole entry): as above

For the molecule `CC1(Cn2cc(C(=O)NCC3CCC(F)(F)CC3)c3c(Cl)cccc32)CCN1` (stereo not drawn) [Compound 152, 4-chloro-N-((4,4-difluorocyclohexyl)methyl)-1-((2-methylazetidin-2-yl)methyl)-1H-indole-3-carboxamide], the IC50 was 10 to 100 nM on human P2X7 receptor and 500 to 999 nM in assay [1].

As for `O=C(NCC1CCC(F)(F)CC1)c1cn(C[C@@H]2CCCN2)c2cccc(Cl)c12` [Compound 153, (S)-4-chloro-N-((4,4-difluorocyclohexyl)methyl)-1-(pyrrolidin-2-ylmethyl)-1H-indole-3-carboxamide], the IC50 at human P2X7 receptor (setting [2]) was below 10 nM; in assay [1], 10 to 100 nM.

With `O=C(NCC1CCC(F)(F)CC1)c1cn(C[C@H]2CCCN2)c2cccc(Cl)c12` [Compound 154, (R)-4-chloro-N-((4,4-difluorocyclohexyl)methyl)-1-(pyrrolidin-2-ylmethyl)-1H-indole-3-carboxamide], the IC50 (against human P2X7 receptor; in assay [1]) was 10 to 100 nM throughout.

As for `O=C(NCC1(O)CCCC(F)(F)C1)c1cn(CC2CCCN2)c2cccc(Cl)c12` (stereo not drawn) [Compound 155, 4-chloro-N-((3,3-difluoro-1-hydroxycyclohexyl)methyl)-1-(pyrrolidin-2-ylmethyl)-1H-indole-3-carboxamide], the IC50 against human P2X7 receptor was 10 to 100 nM; in assay [1] (setting [3]) it was below 10 nM.

In the case of `O=C(NCC1CCCC(F)(F)C1)c1cn(CC2CCCN2)c2cccc(Cl)c12` (stereo not drawn) [Compound 156, 4-chloro-N-((3,3-difluorocyclohexyl)methyl)-1-(pyrrolidin-2-ylmethyl)-1H-indole-3-carboxamide], the IC50 against human P2X7 receptor is 10 to 100 nM; in assay [1] (setting [3]) it was below 10 nM.

For `CC1CC(CNC(=O)c2cn(CC3CCCN3)c3cccc(Cl)c23)CC(F)(F)C1` (stereo not drawn) [Compound 157, 4-chloro-N-((3,3-difluoro-5-methylcyclohexyl)methyl)-1-(pyrrolidin-2-ylmethyl)-1H-indole-3-carboxamide], the IC50 on human P2X7 receptor was 10 to 100 nM; in assay [1] (setting [3]), below 10 nM.

For the molecule `O=C(NCC1CCC(F)(F)CC1)c1cn(CC2CCCN2)c2cccc(Cl)c12` (stereo not drawn) [Compound 158, 4-chloro-N-((4,4-difluorocyclohexyl)methyl)-1-(pyrrolidin-2-ylmethyl)-1H-indole-3-carboxamide], the IC50 (on human P2X7 receptor (setting [2]); in assay [1] (setting [3])) was below 10 nM each time.

`O=C(NCC1(O)CCCC(F)(F)C1)c1cn(CC2CCNC2)c2cccc(Cl)c12` (stereo not drawn) [Compound 159, 4-chloro-N-((3,3-difluoro-1-hydroxycyclohexyl)methyl)-1-(pyrrolidin-3-ylmethyl)-1H-indole-3-carboxamide]: the IC50 against human P2X7 receptor lay within 10 to 100 nM; in assay [1], 101 to 500 nM.

Turning to `O=C(NCC1CCC(F)(F)CC1)c1cn(CC2CCNC2)c2cccc(Cl)c12` (stereo not drawn) [Compound 160], the IC50 (on human P2X7 receptor; in assay [1]) was 101 to 500 nM throughout.

Turning to `O=C1CC[C@H](Cn2cc(C(=O)NCC3CCC(F)(F)CC3)c3c(Cl)cccc32)N1` [Compound 162, (R)-4-chloro-N-((4,4-difluorocyclohexyl)methyl)-1-((5-oxopyrrolidin-2-yl)methyl)-1H-indole-3-carboxamide], the IC50 (against human P2X7 receptor; in assay [1]) was 10 to 100 nM in each case.

As to `O=C(NCC1CCC(F)(F)CC1)c1cn(CC(=O)N2CCC2)c2cccc(Cl)c12` [Compound 163], the IC50 at human P2X7 receptor (setting [2]) was below 10 nM; in assay [1] it was 10 to 100 nM.

Regarding `O=C(NCC1CCC(F)(F)CC1)c1cn(CC2COCCN2)c2cccc(Cl)c12` (stereo not drawn) [Compound 164, 4-chloro-N-((4,4-difluorocyclohexyl)methyl)-1-(morpholin-3-ylmethyl)-1H-indole-3-carboxamide], the IC50 is 101 to 500 nM against human P2X7 receptor and 10 to 100 nM in assay [1].

Turning to `O=C(NCC1(O)CCC(F)(F)CC1)c1cn(CC2CCCCO2)c2cccc(Cl)c12` (stereo not drawn) [Compound 166, 4-chloro-N-((4,4-difluoro-1-hydroxycyclohexyl)methyl)-1-((tetrahydro-2H-pyran-2-yl)methyl)-1H-indole-3-carboxamide], the IC50 (against human P2X7 receptor; in assay [1]) was 10 to 100 nM in each case.

On to `O=C(NCC1CCC(F)(F)CC1)c1cn(CC2CCCCO2)c2cccc(Cl)c12` (stereo not drawn) [Compound 167, 4-chloro-N-((4,4-difluorocyclohexyl)methyl)-1-((tetrahydro-2H-pyran-2-yl)methyl)-1H-indole-3-carboxamide], for which the IC50 (on human P2X7 receptor; in assay [1]) was 10 to 100 nM each time.

For the molecule `O=C(NCC1CCC(F)(F)CC1)c1cn(CC2CCOCC2)c2cccc(Cl)c12` [Compound 168, 4-chloro-N-((4,4-difluorocyclohexyl)methyl)-1-((tetrahydro-2H-pyran-4-yl)methyl)-1H-indole-3-carboxamide], the IC50 at human P2X7 receptor lay within 10 to 100 nM; in assay [1] it was 101 to 500 nM.

With `CN1CCC[C@H]1Cn1cc(C(=O)NCC2(O)CCC(F)(F)CC2)c2c(Cl)cccc21` [Compound 169, (S)-4-chloro-N-((4,4-difluoro-1-hydroxycyclohexyl)methyl)-1-((1-methylpyrrolidin-2-yl)methyl)-1H-indole-3-carboxamide], the IC50 (on human P2X7 receptor; in assay [1]) was 10 to 100 nM in each case.

As for `CN1CCCC1Cn1cc(C(=O)NCC2CCC(F)(F)CC2)c2c(Cl)cccc21` (stereo not drawn) [Compound 170, 4-chloro-N-((4,4-difluorocyclohexyl)methyl)-1-((1-methylpyrrolidin-2-yl)methyl)-1H-indole-3-carboxamide], the IC50 (at human P2X7 receptor; in assay [1]) was 10 to 100 nM in each case.

Take `O=C(NCC1CCC(F)(F)CC1)c1cn(C2CN(C3CC3)C2)c2cccc(Cl)c12` [Compound 171, 4-chloro-1-(1-cyclopropylazetidin-3-yl)-N-((4,4-difluorocyclohexyl)methyl)-1H-indole-3-carboxamide]: the results for the IC50 (at human P2X7 receptor; in assay [1]) were 101 to 500 nM and 500 to 999 nM, respectively.

As for `O=C(NCC1CCC(F)(F)CC1)c1cn(CC2CCCCN2)c2cccc(Cl)c12` (stereo not drawn) [Compound 173, 4-chloro-N-((4,4-difluorocyclohexyl)methyl)-1-(piperidin-2-ylmethyl)-1H-indole-3-carboxamide], the IC50 (at human P2X7 receptor (setting [2]); in assay [1] (setting [3])) was below 10 nM in each case.

`O=C(NCC1CCC(F)(F)CC1)c1cn(CC2CCCNC2)c2cccc(Cl)c12` (stereo not drawn) [Compound 174, 4-chloro-N-((4,4-difluorocyclohexyl)methyl)-1-(piperidin-3-ylmethyl)-1H-indole-3-carboxamide]: the IC50 (on human P2X7 receptor; in assay [1]) was 10 to 100 nM throughout.

`O=C(NCC1CCC(F)(F)CC1)c1cn(CC2CCNCC2)c2cccc(Cl)c12` [Compound 175, 4-chloro-N-((4,4-difluorocyclohexyl)methyl)-1-(piperidin-4-ylmethyl)-1H-indole-3-carboxamide]: the IC50 (on human P2X7 receptor; in assay [1]) was 101 to 500 nM throughout.

Consider `O=C(NC[C@@]1(O)CCCC(F)(F)C1)c1cn(CCN2CCCC2)c2cccc(Cl)c12` [Compound 176, (R)-4-chloro-N-((3,3-difluoro-1-hydroxycyclohexyl)methyl)-1-(2-(pyrrolidin-1-yl)ethyl)-1H-indole-3-carboxamide], for which the IC50 (on human P2X7 receptor (setting [2]); in assay [1] (setting [3])) was above 1000 nM throughout.

As to `O=C(NC[C@]1(O)CCCC(F)(F)C1)c1cn(CCN2CCCC2)c2cccc(Cl)c12` [Compound 177, (S)-4-chloro-N-((3,3-difluoro-1-hydroxycyclohexyl)methyl)-1-(2-(pyrrolidin-1-yl)ethyl)-1H-indole-3-carboxamide], the IC50 (against human P2X7 receptor; in assay [1]) was 101 to 500 nM each time.

As to `O=C(NCC1(O)CCCC(F)(F)C1)c1cn(CCN2CCCC2)c2cccc(Cl)c12` (stereo not drawn) [Compound 178, 4-chloro-N-((3,3-difluoro-1-hydroxycyclohexyl)methyl)-1-(2-(pyrrolidin-1-yl)ethyl)-1H-indole-3-carboxamide], the IC50 (on human P2X7 receptor; in assay [1]) was 10 to 100 nM each time.

For the molecule `O=C(NCC1CCC(F)(F)CC1)c1cn(CCN2CCCC2)c2cccc(Cl)c12` [Compound 179, 4-chloro-N-((4,4-difluorocyclohexyl)methyl)-1-(2-(pyrrolidin-1-yl)ethyl)-1H-indole-3-carboxamide], the IC50 (against human P2X7 receptor; in assay [1]) was 101 to 500 nM each time.

As for `CN1CC(F)(F)C[C@H]1Cn1cc(C(=O)NCC2CCC(F)(F)CC2)c2c(Cl)cccc21` [Compound 180, (S)-4-chloro-1-((4,4-difluoro-1-methylpyrrolidin-2-yl)methyl)-N-((4,4-difluorocyclohexyl)methyl)-1H-indole-3-carboxamide], the IC50 at human P2X7 receptor was in the range of 101 to 500 nM; in assay [1] it was 500 to 999 nM.

For `CC(=O)N1CC[C@H]1Cn1cc(C(=O)NCC2CCC(F)(F)CC2)c2c(Cl)cccc21` [Compound 181, (S)-1-((1-acetylazetidin-2-yl)methyl)-4-chloro-N-((4,4-difluorocyclohexyl)methyl)-1H-indole-3-carboxamide], the IC50 (on human P2X7 receptor (setting [2]); in assay [1] (setting [3])) was 101 to 500 nM throughout.

`CN1C(=O)CC[C@@H]1Cn1cc(C(=O)NCC2CCC(F)(F)CC2)c2c(Cl)cccc21` [Compound 182, (R)-4-chloro-N-((4,4-difluorocyclohexyl)methyl)-1-((1-methyl-5-oxopyrrolidin-2-yl)methyl)-1H-indole-3-carboxamide]: the IC50 (on human P2X7 receptor; in assay [1]) was 10 to 100 nM in each case.

With `CN1CCOC(Cn2cc(C(=O)NCC3CCC(F)(F)CC3)c3c(Cl)cccc32)C1` (stereo not drawn) [Compound 183, 4-chloro-N-((4,4-difluorocyclohexyl)methyl)-1-((4-methylmorpholin-2-yl)methyl)-1H-indole-3-carboxamide], the IC50 (at human P2X7 receptor; in assay [1]) was 10 to 100 nM throughout.

As to `CN1CCOCC1Cn1cc(C(=O)NCC2CCC(F)(F)CC2)c2c(Cl)cccc21` (stereo not drawn) [Compound 184, 4-chloro-N-((4,4-difluorocyclohexyl)methyl)-1-((4-methylmorpholin-3-yl)methyl)-1H-indole-3-carboxamide], the IC50 (at human P2X7 receptor; in assay [1]) was 101 to 500 nM in each case.
